Values quoted from earlier work, collected in paper PMC7926623 (Marine Drugs, 2021).

System: rα6/α3β2β3 nAChR
Conditions: cited from earlier work

α-Conotoxin TxIB
IC50: 28.4 nM
